Data published in ChEMBL document CHEMBL1201862, “PubChem BioAssay data set” (2004).
Calls of active or inactive are those of the source.

Key:
Streptococcus = experiment: GAS UMAA2166 growth inhibition – luminescence, BacTiterGlo, counter-screen for streptokinase expression inhibitor project, dose response (AID 1915); type: functional, organism-based;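 also: potency for reduction of bacterial viability or growth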
[1] = MIN6 cell viability loss – mouse insulinoma, cytotoxicity control, dose response (AID 2122); type: functional;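 also: confirmatory high-throughput counterscreen run to flag cytotoxic compounds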
[2] = decrease of insulin promoter-GFP reporter – imaging, high-content screening, mouse beta cells (AID 1628); type: functional; settings: MIN6
[3] = test system: Streptococcus sp. 'group A'; experiment: Streptococcus pyogenes SK(-)GAS viability under kanamycin – luminescence, BacTiterGlo, confirmation, counter-screen for streptokinase expression inhibitor project, dose response (AID 1900); type: functional, organism-based
Streptokinase A = molecular target: T1, Streptokinase A (Streptococcus pyogenes serotype M1, UniProt P10520); experiment: viability-normalized secreted streptokinase activity reduction – plasminogen activation absorbance, OD405, dose response (AID 1914); type: functional, Streptococcus pyogenes M1 GAS;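 also: secreted streptokinase activity via plasminogen activation per viability signal from cell pellet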
T1 sequence (P10520 whole entry): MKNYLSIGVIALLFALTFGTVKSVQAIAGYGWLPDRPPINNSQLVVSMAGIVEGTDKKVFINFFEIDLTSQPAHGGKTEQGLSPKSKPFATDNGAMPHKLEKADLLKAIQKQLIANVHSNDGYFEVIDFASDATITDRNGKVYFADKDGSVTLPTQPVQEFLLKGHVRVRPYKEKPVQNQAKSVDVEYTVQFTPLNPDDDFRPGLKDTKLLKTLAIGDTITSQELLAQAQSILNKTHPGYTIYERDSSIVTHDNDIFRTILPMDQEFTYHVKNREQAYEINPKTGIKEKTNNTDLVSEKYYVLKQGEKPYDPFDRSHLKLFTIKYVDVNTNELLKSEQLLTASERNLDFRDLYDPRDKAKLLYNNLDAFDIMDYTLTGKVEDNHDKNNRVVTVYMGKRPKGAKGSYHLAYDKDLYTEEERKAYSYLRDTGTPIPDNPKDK

HEK293 [4] = experiment: inhibition of NOD1-driven NF-kB reporter – cell-based, luminescence, uHTS, primary screen (AID 1578); type: functional; settings: Homo sapiens
Protein RecA = molecular target: T2, Protein RecA (Mycobacterium tuberculosis, UniProt P9WHJ3); experiment: Fluorescence Cell-Free Homogeneous Dose Retest to Identify Inhibitors of RecA-Intein Splicing Activity. [Related pubchem assays (depositor defined):AID2097, AID2223, AID489010, AID492950]; type: functional
T2 sequence (P9WHJ3 whole entry): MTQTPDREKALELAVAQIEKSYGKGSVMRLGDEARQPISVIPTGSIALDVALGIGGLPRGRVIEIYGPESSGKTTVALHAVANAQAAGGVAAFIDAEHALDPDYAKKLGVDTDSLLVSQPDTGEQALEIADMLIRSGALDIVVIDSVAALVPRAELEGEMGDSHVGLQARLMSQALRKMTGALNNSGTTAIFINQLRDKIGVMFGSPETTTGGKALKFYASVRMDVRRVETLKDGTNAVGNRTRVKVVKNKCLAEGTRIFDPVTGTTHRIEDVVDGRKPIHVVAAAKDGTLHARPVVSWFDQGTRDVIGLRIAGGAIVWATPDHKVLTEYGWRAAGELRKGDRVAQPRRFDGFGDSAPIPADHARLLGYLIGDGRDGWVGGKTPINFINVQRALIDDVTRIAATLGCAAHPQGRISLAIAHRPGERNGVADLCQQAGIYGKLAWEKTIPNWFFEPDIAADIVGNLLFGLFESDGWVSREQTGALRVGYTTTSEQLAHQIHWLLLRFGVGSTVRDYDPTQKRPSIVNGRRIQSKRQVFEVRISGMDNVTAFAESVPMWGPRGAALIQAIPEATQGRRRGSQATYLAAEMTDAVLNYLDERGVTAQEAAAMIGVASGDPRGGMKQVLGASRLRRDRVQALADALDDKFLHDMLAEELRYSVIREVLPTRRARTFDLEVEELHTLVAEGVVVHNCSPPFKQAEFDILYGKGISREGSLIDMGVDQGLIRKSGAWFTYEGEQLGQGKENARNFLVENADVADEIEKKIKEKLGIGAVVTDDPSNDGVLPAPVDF

[5] = molecular target: T3, Replicative DNA helicase DnaB (Mycobacterium tuberculosis, UniProt P9WMR3); experiment: DnaB intein splicing inhibitors, dose response, biochemical, cell-free fluorescence (AID 449749); type: functional
T3 sequence (P9WMR3 whole entry): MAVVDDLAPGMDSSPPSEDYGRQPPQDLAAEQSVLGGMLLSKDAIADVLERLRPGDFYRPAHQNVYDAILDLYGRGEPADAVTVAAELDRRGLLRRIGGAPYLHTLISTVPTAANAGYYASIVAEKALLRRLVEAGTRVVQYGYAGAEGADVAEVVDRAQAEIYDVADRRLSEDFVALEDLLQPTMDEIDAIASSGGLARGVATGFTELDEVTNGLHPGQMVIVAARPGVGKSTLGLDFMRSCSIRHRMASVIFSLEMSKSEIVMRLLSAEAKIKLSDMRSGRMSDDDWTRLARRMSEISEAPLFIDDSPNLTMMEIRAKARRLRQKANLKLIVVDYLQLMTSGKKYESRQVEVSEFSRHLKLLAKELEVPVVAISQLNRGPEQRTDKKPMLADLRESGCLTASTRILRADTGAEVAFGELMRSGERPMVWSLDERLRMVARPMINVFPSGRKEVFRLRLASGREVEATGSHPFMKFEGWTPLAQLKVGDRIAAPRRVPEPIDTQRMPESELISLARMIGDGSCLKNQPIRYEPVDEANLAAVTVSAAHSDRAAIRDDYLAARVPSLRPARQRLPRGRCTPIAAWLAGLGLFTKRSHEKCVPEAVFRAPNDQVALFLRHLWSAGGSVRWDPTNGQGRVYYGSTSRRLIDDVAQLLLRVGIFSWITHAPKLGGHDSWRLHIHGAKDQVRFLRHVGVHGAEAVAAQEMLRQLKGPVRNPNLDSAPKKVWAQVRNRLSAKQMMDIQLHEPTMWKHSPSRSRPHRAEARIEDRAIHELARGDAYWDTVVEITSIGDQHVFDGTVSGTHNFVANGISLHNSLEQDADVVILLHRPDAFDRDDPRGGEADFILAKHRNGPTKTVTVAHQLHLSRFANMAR

[6] = DRD fibroblast viability loss – cell-based, non-viral oncogenic, luminescence, dose response (AID 1934); type: functional; settings: Homo sapiens
[7] = molecular target: Nucleotide-binding oligomerization domain-containing protein 2 (Homo sapiens, UniProt Q9HC29); experiment: inhibition of NOD2-driven NF-kB reporter – cell-based, luminescence, uHTS, HEK293 (AID 1566); type: functional
HEK293 [8] = experiment: cells; type: functional, cell-based; settings: Homo sapiens
BJ [9] = experiment: BJ-TERT fibroblast viability loss – cell-based, RAS-independent, luminescence, dose response (AID 1933); type: functional; settings: Homo sapiens
HEK293 [10] = experiment: cells; type: functional, cell-based; settings: Homo sapiens; remark: listed apart in the source
BJ [11] = experiment: BJ-TERT-LT-ST fibroblast viability loss – cell-based, RAS-independent, luminescence, dose response (AID 1935); type: functional; settings: Homo sapiens;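 also: BJ fibroblasts immortalized with TERT plus LT and ST oncogenes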
BJ [12] = experiment: cells; type: functional, cell-based; settings: Homo sapiens
HEK293 [13] = experiment: NOD2 signaling inhibitors in MDP-stimulated cells, cell-based, uHTS, luminescence (AID 2001); type: functional; settings: Homo sapiens
HEK293 [14] = experiment: cells; type: functional, cell-based; settings: Homo sapiens; remark: listed apart in the source
[15] = molecular target: T4, E3 ubiquitin-protein ligase XIAP (Homo sapiens, UniProt P98170); experiment: small molecules displacing peptide from XIAP – biochemical, IAP family, fluorescence polarization (AID 1018); type: functional
[16] = molecular target: T4, E3 ubiquitin-protein ligase XIAP; experiment: Counter Screen using XIAP-Bir3 for Chemical Antagonists of Bir1/2 domains of IAP-family anti-apoptotic proteins. [Related pubchem assays (depositor defined):AID1018, AID1449, AID1514, AID1638, AID1749, AID1750, AID488957, AID488963]
[17] = Luminescence Cell-Based Dose Retest to Confirm Inhibitors of Cancer Stem Cells. [Related pubchem assays (depositor defined):AID2717, AID2721]; type: functional; settings: Homo sapiens
[18] = molecular target: Disintegrin and metalloproteinase domain-containing protein 17 (Homo sapiens, UniProt P78536); experiment: inhibition of ADAM17 substrate cleavage – biochemical, quenched FRET substrate, counter-screen for ADAM10 exosite inhibitor project, dose response (AID 743253)
Nonstructural protein 1 = Nonstructural protein 1 (Influenza A virus, UniProt Q194T2); type: functional, Influenza A virus (A/California/07/2009(H1N1))
H9c2 = experiment: cells; type: functional, cell-based; settings: Rattus norvegicus, H9c2, Myocardium;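 also: confirmatory concentration-response retest of ultra-high-throughput screening hits for modulation of myocardial damage; cell death induced by hydrogen peroxide oxidative stress; compound pretreatment for 60 min then peroxide exposure for 2 h; potency is for protecting the cells against peroxide damage rather than for killing them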
Estrogen receptor beta = Estrogen receptor beta (Homo sapiens, UniProt Q92731);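 also: recombinant ER-beta bound to coactivator SRC1 peptide in presence of estradiol agonist; inhibitors block coactivator peptide binding and lower the FRET signal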
Bcl-2-like protein 10 = molecular target: T5, Bcl-2-like protein 10 (Homo sapiens, UniProt Q9HD36); experiment: Bcl-B/TR3 peptide binding disruption – biochemical, fluorescence polarization, FITC-TR3 peptide, selectivity assay for Bfl-1 inhibitor project, primary screen (AID 748);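 also: fluorescence polarization from a fluorescein-labelled TR3 peptide binding purified Bcl-B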
T5 sequence (Q9HD36 whole entry): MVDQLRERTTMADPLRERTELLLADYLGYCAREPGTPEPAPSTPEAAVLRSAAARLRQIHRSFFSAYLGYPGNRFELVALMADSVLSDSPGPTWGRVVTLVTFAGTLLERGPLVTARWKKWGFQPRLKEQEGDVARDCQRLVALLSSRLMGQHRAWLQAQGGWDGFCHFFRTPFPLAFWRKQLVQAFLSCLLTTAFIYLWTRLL

[19] = molecular target: T6, Carboxy-terminal domain RNA polymerase II polypeptide A small phosphatase 1 (Homo sapiens, UniProt Q9GZU7); experiment: CTDSP1 inhibitors, concentration-response, biochemical, absorbance readout, ultra-high-throughput screen actives (AID 540297); type: functional
T6 sequence (Q9GZU7 whole entry): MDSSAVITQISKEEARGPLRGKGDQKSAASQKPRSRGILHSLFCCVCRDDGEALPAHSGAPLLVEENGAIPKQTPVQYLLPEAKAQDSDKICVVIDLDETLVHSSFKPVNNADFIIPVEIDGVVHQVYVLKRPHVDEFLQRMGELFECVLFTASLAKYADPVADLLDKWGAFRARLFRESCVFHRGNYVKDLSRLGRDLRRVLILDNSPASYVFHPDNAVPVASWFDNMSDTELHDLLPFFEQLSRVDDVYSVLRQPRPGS

[20] = molecular target: Kappa-type opioid receptor (Homo sapiens, UniProt P41145); experiment: SAR analysis of small molecule agonists of the kappa opioid receptor via a luminescent beta-arrestin assay - Set 3. [Related pubchem assays (depositor defined):AID1777, AID1785, AID1786, AID1966, AID2133, AID2136, AID2284, AID2500]; type: functional
[21] = fluconazole-exposed Candida albicans growth modulators – fluorescence, retest, confirmation (AID 2467); type: functional, cell-based
[22] = NIH-3T3 fibroblast cytotoxicity, dose response, cytotoxicity control, cell-based, fluorescence, Alamar Blue, secondary assay (AID 2327); type: functional;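 also: NIH-3T3 mouse fibroblasts cultured with fluconazole at 8 µg/mL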
Protein Wnt-3a = Protein Wnt-3a (Mus musculus, UniProt P27467); experiment: antagonism of Wnt3a pathway luciferase reporter – Wnt-LIGHT cells, luminescence, selectivity assay for Gli-SUFU antagonist project, dose response (AID 651570); type: functional; settings: read-out: IC50_Mean;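 also: Wnt-LIGHT reporter cells stimulated with conditioned medium from Wnt3a-producing cells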
[23] = NIH3T3 cell viability loss – ATP luminescence, mouse fibroblasts, counter-screen, dose response (AID 2010); type: functional, cell-based;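 also: cells exposed to compound for about 90 hours before reading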
[24] = Trypanosoma cruzi growth suppression in host cells – NIH3T3 host cells, beta-gal luminescence, confirmation (AID 2044); type: functional, cell-based;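 also: intracellular parasites grown in NIH/3T3 mouse fibroblasts as host cells; luminescent beta-galactosidase reporter signal from transgenic T. cruzi replicating inside host cells; inhibitors lower the luminescence signal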

T4 sequence (P98170 whole entry): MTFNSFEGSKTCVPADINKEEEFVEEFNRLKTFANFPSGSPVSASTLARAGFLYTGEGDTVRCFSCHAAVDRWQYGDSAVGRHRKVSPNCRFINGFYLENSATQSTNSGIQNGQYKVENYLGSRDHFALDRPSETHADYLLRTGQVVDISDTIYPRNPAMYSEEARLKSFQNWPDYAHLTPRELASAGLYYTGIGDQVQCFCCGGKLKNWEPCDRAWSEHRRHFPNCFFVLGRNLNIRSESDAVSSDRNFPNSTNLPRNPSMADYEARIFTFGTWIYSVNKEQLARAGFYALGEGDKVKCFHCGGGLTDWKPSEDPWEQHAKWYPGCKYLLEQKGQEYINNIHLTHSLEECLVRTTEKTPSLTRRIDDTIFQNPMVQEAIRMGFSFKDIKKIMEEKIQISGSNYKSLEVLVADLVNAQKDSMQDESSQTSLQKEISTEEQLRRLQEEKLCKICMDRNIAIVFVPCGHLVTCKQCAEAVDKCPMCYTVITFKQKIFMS
Sequence of Nucleotide-binding oligomerization domain-containing protein 2 (Q9HC29 whole entry, the tested form may be a part): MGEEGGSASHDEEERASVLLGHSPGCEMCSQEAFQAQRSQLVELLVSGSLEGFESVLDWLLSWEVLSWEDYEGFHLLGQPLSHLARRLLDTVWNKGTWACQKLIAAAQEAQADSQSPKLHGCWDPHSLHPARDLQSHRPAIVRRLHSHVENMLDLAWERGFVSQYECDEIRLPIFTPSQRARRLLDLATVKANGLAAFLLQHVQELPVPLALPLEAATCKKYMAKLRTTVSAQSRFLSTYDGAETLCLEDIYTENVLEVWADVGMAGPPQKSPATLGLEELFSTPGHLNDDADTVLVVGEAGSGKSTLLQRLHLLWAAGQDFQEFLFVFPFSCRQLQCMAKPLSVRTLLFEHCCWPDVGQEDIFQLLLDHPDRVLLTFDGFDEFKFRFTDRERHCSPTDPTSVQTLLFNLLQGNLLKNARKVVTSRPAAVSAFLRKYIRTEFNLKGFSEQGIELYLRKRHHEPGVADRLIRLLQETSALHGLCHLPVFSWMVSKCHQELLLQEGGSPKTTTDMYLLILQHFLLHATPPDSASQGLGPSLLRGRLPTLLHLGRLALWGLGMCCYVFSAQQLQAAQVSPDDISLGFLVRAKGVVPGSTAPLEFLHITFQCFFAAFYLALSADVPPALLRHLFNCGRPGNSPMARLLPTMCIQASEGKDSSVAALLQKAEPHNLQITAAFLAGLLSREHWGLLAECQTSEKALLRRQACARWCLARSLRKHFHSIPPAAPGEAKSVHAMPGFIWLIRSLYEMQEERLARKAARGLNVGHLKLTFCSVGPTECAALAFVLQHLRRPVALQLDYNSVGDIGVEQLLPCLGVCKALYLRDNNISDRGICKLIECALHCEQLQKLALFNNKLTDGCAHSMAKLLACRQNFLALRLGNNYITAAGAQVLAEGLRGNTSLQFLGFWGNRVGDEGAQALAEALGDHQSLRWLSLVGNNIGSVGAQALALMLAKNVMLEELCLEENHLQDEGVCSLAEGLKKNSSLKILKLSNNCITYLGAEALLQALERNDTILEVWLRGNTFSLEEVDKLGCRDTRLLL
Sequence of Disintegrin and metalloproteinase domain-containing protein 17 (P78536 whole entry, the tested form may be a part): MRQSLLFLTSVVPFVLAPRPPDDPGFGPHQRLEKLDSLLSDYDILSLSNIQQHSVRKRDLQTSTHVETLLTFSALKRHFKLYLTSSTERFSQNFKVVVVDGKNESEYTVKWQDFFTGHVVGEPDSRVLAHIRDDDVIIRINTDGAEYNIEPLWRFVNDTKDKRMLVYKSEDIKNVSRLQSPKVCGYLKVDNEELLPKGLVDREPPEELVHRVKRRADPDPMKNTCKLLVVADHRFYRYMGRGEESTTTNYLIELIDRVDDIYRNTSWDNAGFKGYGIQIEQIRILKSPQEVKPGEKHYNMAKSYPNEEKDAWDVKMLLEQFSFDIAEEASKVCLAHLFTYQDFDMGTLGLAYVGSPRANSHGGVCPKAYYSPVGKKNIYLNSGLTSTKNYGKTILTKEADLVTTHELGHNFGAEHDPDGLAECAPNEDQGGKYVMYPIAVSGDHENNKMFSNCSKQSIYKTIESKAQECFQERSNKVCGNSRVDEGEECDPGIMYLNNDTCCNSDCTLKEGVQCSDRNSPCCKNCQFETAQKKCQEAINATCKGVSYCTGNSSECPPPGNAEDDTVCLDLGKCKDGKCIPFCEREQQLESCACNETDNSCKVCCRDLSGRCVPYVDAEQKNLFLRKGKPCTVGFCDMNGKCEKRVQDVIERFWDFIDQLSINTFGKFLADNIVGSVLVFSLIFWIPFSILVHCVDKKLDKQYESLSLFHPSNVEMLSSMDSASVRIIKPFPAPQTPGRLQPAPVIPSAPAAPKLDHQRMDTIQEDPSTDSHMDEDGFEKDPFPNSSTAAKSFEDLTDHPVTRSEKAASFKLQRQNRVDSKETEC
Sequence of Estrogen receptor beta (Q92731 whole entry): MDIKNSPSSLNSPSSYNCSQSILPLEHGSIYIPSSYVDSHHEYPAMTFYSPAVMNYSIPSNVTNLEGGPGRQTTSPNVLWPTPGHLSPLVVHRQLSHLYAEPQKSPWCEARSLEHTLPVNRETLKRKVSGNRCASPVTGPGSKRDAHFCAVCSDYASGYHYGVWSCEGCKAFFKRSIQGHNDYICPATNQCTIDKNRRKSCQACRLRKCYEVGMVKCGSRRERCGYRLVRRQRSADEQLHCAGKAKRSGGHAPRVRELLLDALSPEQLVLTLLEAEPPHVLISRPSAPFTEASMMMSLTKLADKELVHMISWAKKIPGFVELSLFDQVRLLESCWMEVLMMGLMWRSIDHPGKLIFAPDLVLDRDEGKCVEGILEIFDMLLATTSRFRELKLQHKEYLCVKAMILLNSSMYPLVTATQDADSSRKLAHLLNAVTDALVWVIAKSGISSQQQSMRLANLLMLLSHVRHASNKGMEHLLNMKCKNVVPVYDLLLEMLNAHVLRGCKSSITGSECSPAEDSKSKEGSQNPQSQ
Sequence of Kappa-type opioid receptor (P41145 whole entry): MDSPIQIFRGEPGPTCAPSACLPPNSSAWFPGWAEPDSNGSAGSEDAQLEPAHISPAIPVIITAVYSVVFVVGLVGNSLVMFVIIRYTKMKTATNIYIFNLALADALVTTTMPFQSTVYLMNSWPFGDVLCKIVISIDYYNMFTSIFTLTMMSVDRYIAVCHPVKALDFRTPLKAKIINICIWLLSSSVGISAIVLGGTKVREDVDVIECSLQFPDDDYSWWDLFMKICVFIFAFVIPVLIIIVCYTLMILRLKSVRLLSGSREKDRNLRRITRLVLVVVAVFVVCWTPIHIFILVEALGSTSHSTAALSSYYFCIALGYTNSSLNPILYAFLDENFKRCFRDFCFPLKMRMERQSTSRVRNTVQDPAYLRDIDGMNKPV
Sequence of Nonstructural protein 1 (Q194T2 whole entry): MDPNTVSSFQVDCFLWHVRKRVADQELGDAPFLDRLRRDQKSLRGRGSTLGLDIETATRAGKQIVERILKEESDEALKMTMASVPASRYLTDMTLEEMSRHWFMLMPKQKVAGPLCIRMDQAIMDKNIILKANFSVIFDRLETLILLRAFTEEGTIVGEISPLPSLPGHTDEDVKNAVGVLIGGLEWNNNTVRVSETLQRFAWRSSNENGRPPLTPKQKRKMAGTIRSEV
Sequence of Protein Wnt-3a (P27467 whole entry): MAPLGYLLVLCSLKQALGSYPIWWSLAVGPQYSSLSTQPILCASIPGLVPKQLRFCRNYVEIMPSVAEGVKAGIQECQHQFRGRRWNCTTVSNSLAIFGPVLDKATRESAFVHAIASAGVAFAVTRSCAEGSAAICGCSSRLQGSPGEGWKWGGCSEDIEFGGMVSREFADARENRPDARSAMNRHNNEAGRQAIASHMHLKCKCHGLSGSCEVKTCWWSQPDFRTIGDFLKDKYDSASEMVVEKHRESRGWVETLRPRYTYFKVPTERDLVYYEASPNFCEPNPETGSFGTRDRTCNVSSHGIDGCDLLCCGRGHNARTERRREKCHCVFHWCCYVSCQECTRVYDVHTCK

Compound: Cc1coc2c1C(=O)C(=O)c1c-2ccc2c(C)cccc12 [TANSHINONE I]
- EC50 (Streptococcus): 7.63 µM (active)
- IC50 [1]: 2.8 µM (active)
- IC50 [2]: 3.91 µM (active)
- EC50 [3]: 4.65 µM (active)
- EC50 (Streptokinase A): > 150 µM (not active)

Compound: Cc1cccc(CN2CCN(C(=O)CCl)CC2)c1
- EC50 (HEK293 [4]): > 20 µM (inactive)
- EC50 (Protein RecA): 20.2 µM (active)
- AC50 [5]: 21.4 µM (active)
- EC50 [6]: 31.2 µM (active)
- EC50 [7]: > 20 µM (inactive)
- IC50 (HEK293 [8]): > 20 µM (inactive)
- EC50 (BJ [9]): 9.64 µM (inconclusive)
- IC50 (HEK293 [10]): 13.9 µM (active)
- EC50 (BJ [11]): > 150 µM (inconclusive)
- EC50 (BJ [12]): > 150 µM (not active)
- IC50 (HEK293 [13]): 16.7 µM (inactive)
- IC50 (HEK293 [14]): > 20 µM (inactive)

Compound: O=C(COC(=O)C(Cc1ccccc1)NC(=O)c1ccco1)NC1CC1 (configuration not stated)
- IC50 [15]: > 100 µM (not active)
- IC50 [16]: > 100 µM (inactive)

Compound: COc1ccc(-c2c[nH]nc2-c2ccc(OCc3ccccc3)cc2O)cc1
- EC50 (Streptococcus): 17.7 µM (active)
- EC50 (HEK293 [4]): 12.2 µM (active)
- EC50 [3]: 2.68 µM (active)
- EC50 [7]: 2.22 µM (active)
- AC50 [17]: 6.84 µM (active)
- IC50 (HEK293 [8]): > 20 µM (inactive)
- IC50 [18]: > 69.5 µM (inactive)
- IC50 (HEK293 [10]): 1.84 µM (active)
- EC50 (Streptokinase A): > 150 µM (inconclusive)
- IC50 (HEK293 [13]): 3.21 µM (active)
- IC50 (HEK293 [14]): > 20 µM (inactive)

Compound: O=C(CN1C(=O)CCC1=O)Nc1nc(-c2ccccn2)cs1
- IC50 [15]: > 100 µM (not active)
- IC50 (Nonstructural protein 1): 4.83 µM (active)
- IC50 (H9c2): 33.4 µM (inactive)
- IC50 [16]: > 100 µM (inactive)

Compound: COc1ccccc1-c1nnc2sc(-c3cnccn3)nn12
- IC50 (Estrogen receptor beta): 4.15 µM (active)
- IC50 (Bcl-2-like protein 10): 28.5 µM (active)
- IC50 [19]: 9.06 µM (active)

Compound: Clc1ccc(CSc2nnc(-c3ccccn3)n2Cc2ccccc2Cl)cc1Cl
- EC50 [20]: 11.8 µM (inactive)

Compound: CC(C)CCOC(=O)C[N+](C)(C)CCOC1CC2CCC1(C)C2(C)C (configuration not stated)
- EC50 [21]: 1.3 µM (active)
- IC50 [1]: < 0.25 µM (active)
- IC50 [2]: 0.643 µM (active)
- EC50 [22]: > 160 µM (inactive)
- IC50 (Protein Wnt-3a): 5.09 µM (active)
- EC50 [23]: > 60 µM (not active)
- EC50 [24]: 286 nM (active)

Compound: CCOC(=O)N1CCC(=NNC(=O)c2ccccc2F)CC1
- IC50 [15]: > 100 µM (not active)
- IC50 [16]: > 100 µM (inactive)
